Data from patent US20240384268A1, “Oligonucleotides” (Hudson Institute of Medical Research, priority 2021, published 2024).
In the oligonucleotide strings, read from the 5' end, every base follows the letter of its sugar. An asterisk marks phosphorothioate; unmarked linkages are phosphodiester. Other units and linkages are bracketed, terminal groups are in braces. A string of capitals states the bases alone. m = 2'-O-methyl

Each sequence was assayed against T1, TLR8 (Homo sapiens, UniProt Q9NR97) (assay: HEK-TLR8 NF-κB-luciferase reporter, R848 or Motolimod stimulation (potentiation or inhibition)). Conditions: 3mer 2'OMe ASO at 5 uM; HEK-TLR8; value relative to Ligand only = 1.000, NT = 0.000.
T1 sequence (Q9NR97 27-1041): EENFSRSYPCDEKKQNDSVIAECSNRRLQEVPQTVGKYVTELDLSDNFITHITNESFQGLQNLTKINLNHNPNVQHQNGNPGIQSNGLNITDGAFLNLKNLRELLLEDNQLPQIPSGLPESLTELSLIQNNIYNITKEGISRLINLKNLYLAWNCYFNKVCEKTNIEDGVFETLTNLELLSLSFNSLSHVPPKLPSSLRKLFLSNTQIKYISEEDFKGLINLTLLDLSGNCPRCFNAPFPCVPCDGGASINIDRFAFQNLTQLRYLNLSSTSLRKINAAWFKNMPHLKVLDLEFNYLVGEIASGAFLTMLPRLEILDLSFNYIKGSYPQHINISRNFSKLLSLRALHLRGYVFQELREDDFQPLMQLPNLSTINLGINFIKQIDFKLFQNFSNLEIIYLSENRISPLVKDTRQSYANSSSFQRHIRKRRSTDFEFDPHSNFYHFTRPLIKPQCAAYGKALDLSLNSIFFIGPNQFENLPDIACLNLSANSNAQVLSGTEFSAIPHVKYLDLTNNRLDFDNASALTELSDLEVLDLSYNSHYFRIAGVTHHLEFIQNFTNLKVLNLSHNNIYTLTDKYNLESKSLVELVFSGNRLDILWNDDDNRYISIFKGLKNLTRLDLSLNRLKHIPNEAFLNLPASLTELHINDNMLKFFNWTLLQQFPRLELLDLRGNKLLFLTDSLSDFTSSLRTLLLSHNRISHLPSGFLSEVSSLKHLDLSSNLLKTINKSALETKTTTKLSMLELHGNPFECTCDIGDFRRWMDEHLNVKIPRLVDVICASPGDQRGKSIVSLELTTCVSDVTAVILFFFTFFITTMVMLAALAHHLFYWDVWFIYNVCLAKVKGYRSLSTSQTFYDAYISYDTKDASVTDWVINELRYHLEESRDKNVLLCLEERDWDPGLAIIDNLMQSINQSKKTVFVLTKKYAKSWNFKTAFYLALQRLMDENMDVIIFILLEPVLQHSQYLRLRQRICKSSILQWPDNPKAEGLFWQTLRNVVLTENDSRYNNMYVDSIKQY
Format: cell-based
Parameters: expressed in transfected cells; host or cells: 293XLhTLR8 (HEK293)
Experimental: (§1) In such examples, potentiation of TLR8 activity can be identified by observation of an overall increased TLR8 response of the cell population, or a higher proportion of cells having TLR8-positive activity as compared to a negative control condition in which cells are treated with TLR8 agonist in the absence of the oligonucleotide (or in the presence of an appropriate control non-potentiating agent). In one example, 293XLhTLR8 (referred to as HEK-TLR8) cells are transfected with pNF-κB-Luc4 reporter, incubated with an oligonucleotide, and then stimulated with R848. TLR8 activity can be determined by a luciferase assay, which measures activated NF-κB by luminescence. TLR8 activity can also be analysed by measuring cytokine levels, for example by ELISA.
as §1, with “inhibition” for “potentiation”, “decreased” for “increased”, “lower” for “higher”, “positive” for “negative”, “inhibitory” for “non-potentiating”
For cGAS stimulations, cells were treated for indicated duration with ASOs, prior to transfection with ISD70 (human cells) or ISD45 (mouse cells) (the ASOs were not washed off prior to ISD transfection unless otherwise indicated). The cGAS ligands ISD45 (Stetson and Medzhitov, 2006) and ISD70 (also known as VACV-70 (Unterholzner et al., 2010)) (Table 1) were resuspended as follows: 5 1d of sense and 5 μl of antisense strands at 10 μg/μl were added to 90 μl PBS under sterile conditions, heated at 75° C. for 30 min, prior to letting cool down at room temperature and aliquoting (stock at 1 μg/1 l). The ISDs were transfected at a concentration of […] at a ratio of 1 μg:1 μl with Lipofectamine 2000 in Opti-MEM (Thermo Fisher Scientific). HEK-TLR3, HEK-TLR7 and […] were treated with indicated concentration of ASOs for 20-50 min, prior to stimulation with poly(I:C) (Invivogen), R848 (Invivogen), Motolimod (MedChemExpress) and the Class B CpG oligonucleotides ODN 2006 (synthesised by IDT and resuspended in RNase-free TE buffer [Table 1]), respectively. The TLR2/1 agonist PAM3CSK4 (Invivogen), the TLR4 agonist lipopolysaccharide (Invivogen), the Class B CpG oligonucleotides ODN 1826 (synthesised by IDT and resuspended in RNase-free TE buffer), the mouse Sting agonist DMXAA (Cayman) and the human STING agonist (compound #3 from (Raanjulu et al., 2018), referred to as GSK herein—kind gift from Cancer Therapeutics CRC, Australia) were used at indicated concentrations. Aspirin (Sigma—A2093) was resuspended in pure medium to 10 mM, filter sterilised and added to the cells at 2 mM final. All ASOs were synthesised by Integrated DNA Technologies (IDT), and resuspended in RNase-free TE buffer, pH 8.0 (Thermo Fisher Scientific). Cell viability was assessed by adding 1× fresh resazurin solution to the wells (10λ solution made up with 7 mg resazurin [Sigma—R7017] dissolved in 3.5 ml PBS, sterile filtered at […]) for 4 h, prior to reading at with a Fluostar OPTIMA (BMG LABTECH) plate-reader (fluorescence: Excitation 535 nm, Emission 590); wells with medium only and 1× resazurin were used as blanks.
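Throughout, for TLR8 1 uM: IP-10 by ELISA in supernatant after 7 h R848 stimulation.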

In order of rising “TLR8 HEK 5 uM” value:
1. CCU (mC*mC*mU)  0.613
2. CUA (mC*mU*mA)  0.642
3. CUC (mC*mU*mC)  0.685
4. CAU (mC*mA*mU)  0.752
5. AUU (mA*mU*mU)  0.762
6. AAU (antisense mA*mA*mU)  0.807
7. GCU (mG*mC*mU)  0.810
8. AUA (antisense mA*mU*mA)  0.812
9. UAC (mU*mA*mC)  0.813
10. AUG (mA*mU*mG)  0.828
11. UAU (mU*mA*mU)  0.887
12. ACU (antisense mA*mC*mU)  0.896
13. UAA (mU*mA*mA)  0.907
14. UUC (mU*mU*mC)  0.968
15. UGC (mU*mG*mC)  1.032
16. UUA (mU*mU*mA)  1.060
17. UUG (listed as RNA, chemistry not fully specified)  1.071
18. CUG (mC*mU*mG)  1.074
19. UGU (mU*mG*mU)  1.120
20. UCC (mU*mC*mC)  1.292
21. CGU (mC*mG*mU)  1.327
22. AGU (antisense mA*mG*mU)  1.329
23. GGU (mG*mG*mU)  1.380
24. UCU (mU*mC*mU)  1.414
25. UAG (mU*mA*mG)  1.443

Same assay, conditions: ASO 100 nM; relative to R848 only

In order of falling “TLR8 100 nM (averaged NF-κB-Luciferase level relative to R848 condition, fold increase)” value:
1. TTCGTGGGGTCCTTTT (antisense; LNA-modified, pattern not given here) [HPRT LNA-661 V1]  0.621
2. TGTGATGGCCTCCCAT (antisense; LNA-modified, pattern not given here) [HPRT LNA-334 V1]  0.582
3. TTTTGGCTGGGATCAA (antisense; LNA-modified, pattern not given here) [CAMSAP1-4697 LNA KL]  0.542
4. TGGCCTCCCATCTCCT (antisense; LNA-modified, pattern not given here) [HPRT LNA-329 V1]  0.495

Same assay, conditions: ASO 500 nM; relative to R848 only

In order of rising “TLR8 500 nM (averaged NF-κB-Luciferase level relative to R848 condition, fold increase)” value:
1. TGGCCTCCCATCTCCT (antisense; LNA-modified, pattern not given here) [HPRT LNA-329 V1]  1.127
2. TTTTGGCTGGGATCAA (antisense; LNA-modified, pattern not given here) [CAMSAP1-4697 LNA KL]  1.412
3. TGTGATGGCCTCCCAT (antisense; LNA-modified, pattern not given here) [HPRT LNA-334 V1]  1.596
4. TTCGTGGGGTCCTTTT (antisense; LNA-modified, pattern not given here) [HPRT LNA-661 V1]  3.144

The sequences below were run against T1, TLR8 (assay: R848-driven IP-10 production in THP-1 cells (TLR8)). Conditions: 3mer 2'OMe ASO at 1 uM; raw values, Ligand only = 355.752, NT = 134.831.
Format: cell-based
Parameters: expressed in transfected cells

In order of falling “TLR8 1 uM” value:
1. CAU (mC*mA*mU)  388.191
2. UCU (mU*mC*mU)  371.961
3. UUA (mU*mU*mA)  350.207
4. UUG (listed as RNA, chemistry not fully specified)  347.573
5. UCC (mU*mC*mC)  346.575
6. CGU (mC*mG*mU)  346.350
7. CCU (mC*mC*mU)  332.524
8. UGU (mU*mG*mU)  331.923
9. UGC (mU*mG*mC)  278.054
10. GGU (mG*mG*mU)  274.989
11. AUU (mA*mU*mU)  274.683
12. AGU (antisense mA*mG*mU)  270.256
13. CUG (mC*mU*mG)  264.072
14. UAC (mU*mA*mC)  254.486
15. ACU (antisense mA*mC*mU)  250.907
16. CUC (mC*mU*mC)  245.566
17. CUA (mC*mU*mA)  243.564
18. UAG (mU*mA*mG)  226.441
19. UAA (mU*mA*mA)  224.188
20. UUC (mU*mU*mC)  213.878
21. UAU (mU*mA*mU)  213.758
22. AAU (antisense mA*mA*mU)  202.802
23. GCU (mG*mC*mU)  193.279
24. AUA (antisense mA*mU*mA)  157.293
25. AUG (mA*mU*mG)  151.847
